Converted amounts (≈) assume the structure as drawn. “And” between values parts separate entries of the source, which are not always exact repeats. Equal entries are not always repeated. Where two headings read alike, the source gives them in different places.
How the values were obtained:
S. pneumoniae [1] = experiment: Broth microdilution MIC (Example 11); conditions: Streptococcus pneumoniae
S. pneumoniae [2] = conditions: S. pneumoniae MMX 6837 (ATCC 49619); cited from earlier work
S. pyogenes = experiment: Broth microdilution MIC (Example 11); conditions: Streptococcus pyogenes
S. agalactiae = experiment: Broth microdilution MIC (Example 11); conditions: Streptococcus agalactiae
[3] = test system: B. cenocepacia (B cepacia complex); experiment: MIC against CF bacterial strains (Example 5)
Achromobacter spp. = experiment: MIC against CF bacterial strains (Example 5)
B. cenocepacia = experiment: FIC checkerboard assay; type: cell-based; conditions: for FICB: FIC of Amikacin in combination with BisEDT, per checkerboard row; for MIC: Burkholderia cenocepacia, read-out: Drug B MIC
M. abscessus complex = experiment: MIC against CF bacterial strains (Example 5); type: cell-based, Mycobacterium abscessus; conditions: Mycobacteroides abscessus, read-out: MIC
Method: (§1) A range of CF-isolated strains of Mycobacterium avium and Mycobacterium abscessus were included; which allows for understanding of the activity against non-tubercular Mycobacteria (NTM). Two distinct bismuth-thiol compounds were evaluated, including BisEDT and BisBDT. […] The CF-isolates of greater clinical relevance, including both M abscessus spp. and Burkholderia spp., were both consistently found to be much more susceptible to BisEDT and BisBDT.

S. aureus ATCC 29213 = conditions: control strain ATCC 29213; per CLSI M100-S24 or provided by Microbion; cited from earlier work
P. aeruginosa [4] = experiment: MIC against CF bacterial strains (Example 5); conditions: Pseudomonas aeruginosa
Burkholderia spp. = experiment: organism not typed; type: cell-based; conditions: read-out: Drug B MIC
[5] = test system: B. cepacia (cepacia complex); experiment: MIC against CF bacterial strains (Example 5); type: cell-based; conditions: Burkholderia cepacia, strain BC17
Method: as §1

[6] = test system: B. multivorans (cepacia complex); experiment: MIC against CF bacterial strains (Example 5); type: cell-based; conditions: Burkholderia multivorans, strain BC5b
Method: as §1

S. maltophilia = experiment: MIC against CF bacterial strains (Example 5); conditions: Stenotrophomonas maltophilia
B. cepacia = experiment: FIC checkerboard assay; type: cell-based; conditions: Burkholderia cepacia, read-out: Drug B MIC
P. aeruginosa [7] = experiment: FIC checkerboard assay; type: cell-based; conditions: Pseudomonas aeruginosa, read-out: Drug B MIC
[8] = test system: vancomycin-intermediate Staphylococcus aureus (VISA); experiment: Broth microdilution MIC (Example 12); conditions: Staphylococcus aureus, NRS13 / VISA, read-out: MIC values
E. faecalis = experiment: Broth microdilution MIC (Example 11); conditions: Enterococcus faecalis, VRE, VRE Lev^R Cip^R Ery^R
Clostridium difficile = conditions: C. difficile MMX 4381 (ATCC 700057); cited from earlier work
[9] = test system: Staphylococcus aureus (MRSA); experiment: Broth microdilution MIC (Example 11)
Bacteroides fragilis = conditions: B. fragilis MMX 123 (ATCC 25285); cited from earlier work
[10] = ATCC49619, S. pneumoniae MMX 6837 (ATCC 49619), QC
[11] = S. pneumoniae MMX 880, Lev^R SXT^R CC^R Ery^R Pen^R
[12] = S. pneumoniae MMX 937, Mem^R SXT^R CC^R Ery^R Pen^R
[13] = S. pneumoniae MMX 3959, CC^R Ery^R
[14] = S. pneumoniae MMX 5440, Mem^R SXT^R CC^R Ery^R Pen^R
[15] = S. pneumoniae MMX 5445, Mem^R SXT^R CC^R Ery^R Pen^R
[16] = S. pneumoniae MMX 8133, Mem^R SXT^R CC^R Ery^R Pen^R
[17] = S. pyogenes MMX 3820, ERY^R CLI^R
[18] = S. pyogenes MMX 3929, ERY^R CC^R
[19] = S. pyogenes MMX 5091, ERY^R CC^R
[20] = S. agalactiae MMX 3741, ERY^R CC^R
[21] = S. agalactiae MMX 3743, ERY^R CC^R
[22] = S. agalactiae MMX 4077, ERY^R CC^R
[23] = S. agalactiae MMX 4079, ERY^R CC^R Pen^R MEM^R
[24] = S. agalactiae MMX 4086, ERY^R CC^R

## CC1(C)S[C@@H]2[C@H](NC(=O)Cc3ccccc3)C(=O)N2[C@H]1C(=O)O [Penicillin]
S. pneumoniae [1]; [10]
  MIC: 0.25 µg/mL (≈ 0.748 µM)
S. pneumoniae [1]; [11]
  MIC: 2 µg/mL (≈ 5.98 µM)
S. pneumoniae [1]; [12]
  MIC: 4 µg/mL (≈ 12 µM)
S. pneumoniae [1]; [13]
  MIC: 0.12 µg/mL (≈ 0.359 µM)
S. pneumoniae [1]; [14]
  MIC: 4 µg/mL (≈ 12 µM)
S. pneumoniae [1]; [15]
  MIC: 4 µg/mL (≈ 12 µM)
S. pneumoniae [1]; [16]
  MIC: 4 µg/mL (≈ 12 µM)
S. pneumoniae [2]
  MIC, CLSI QC range: (0.25-1) μg/mL
S. pyogenes; S. pyogenes MMX 3068, Ery^R
  MIC: ≤ 0.008 µg/mL
S. pyogenes; [17]
  MIC: ≤ 0.008 µg/mL
S. pyogenes; S. pyogenes MMX 3919, ERY^R
  MIC: ≤ 0.008 µg/mL
S. pyogenes; [18]
  MIC: ≤ 0.008 µg/mL
S. pyogenes; [19]
  MIC: ≤ 0.008 µg/mL
S. agalactiae; [20]
  MIC: 0.03 µg/mL (≈ 0.0897 µM)
S. agalactiae; [21]
  MIC: 0.06 µg/mL (≈ 0.179 µM)
S. agalactiae; [22]
  MIC: 0.06 µg/mL (≈ 0.179 µM)
S. agalactiae; [23]
  MIC: 2 µg/mL (≈ 5.98 µM)
S. agalactiae; [24]
  MIC: 0.06 µg/mL (≈ 0.179 µM)

## NCC[C@H](O)C(=O)N[C@@H]1C[C@H](N)[C@@H](O[C@H]2O[C@H](CN)[C@@H](O)[C@H](O)[C@H]2O)[C@H](O)[C@H]1O[C@H]1O[C@H](CO)[C@@H](O)[C@H](N)[C@H]1O [Amikacin, reference compound]
[3]; Burkholderia cenocepacia
  MIC: > 64 µg/mL
[3]; strain AU197
  MIC: >64 µg/mL
Achromobacter spp.
  MIC: > 64 µg/mL
Achromobacter spp.; Achromobacter
  MIC: 64 µg/mL (≈ 109 µM)
B. cenocepacia; B. cenocepacia 548
  FICB: 0.25 and 0.5
B. cenocepacia; B. cenocepacia 813
  FICB: 0.5 and 1
B. cenocepacia; B. cenocepacia 548, Amikacin alone (panel with BisEDT)
  MIC: 128 µg/mL
B. cenocepacia
  MIC: > 256 µg/mL
M. abscessus complex; AMT0130-8, M abscessus/massiliense complex
  MIC: 16 µg/mL (≈ 27.3 µM)
M. abscessus complex; AMT153-9, M abscessus/massiliense complex
  MIC: 32 µg/mL (≈ 54.6 µM)
M. abscessus complex; AMT0493-2, M abscessus/massiliense complex, Amikacin resistant
  MIC: > 64 µg/mL
M. abscessus complex; ATCC19977, ATCC 19977, M abscessus/massiliense complex, Macrolide resistant (inducible)
  MIC: 8 µg/mL (≈ 13.7 µM)
S. aureus ATCC 29213
  Expected MIC: goal (acceptable range): 2 (1-4) mcg/mL
P. aeruginosa [4]
  MIC: 16 µg/mL (≈ 27.3 µM)
P. aeruginosa [4]; strain AGR14, Multi-drug resistant
  MIC: > 64 µg/mL
P. aeruginosa [4]; strain MR14, Multi-drug resistant
  MIC: > 64 µg/mL
Burkholderia spp.
  MIC: > 256 µg/mL
[5]
  MIC: > 64 µg/mL
[6]
  MIC: > 64 µg/mL
S. maltophilia
  MIC: 64 µg/mL (≈ 109 µM)
B. cepacia; B. cepacia 546, Amikacin alone (checkerboard with BisEDT)
  MIC: 64 µg/mL
B. cepacia; B. cepacia 1793, Amikacin alone (panel with BisEDT)
  MIC: 32 µg/mL
P. aeruginosa [7]; Amikacin alone, FIC panel with BisEDT, P. aeruginosa 6322
  MIC: 64 µg/mL
P. aeruginosa [7]; P. aeruginosa 6977, Amikacin alone (checkerboard with BisEDT)
  MIC: 16 µg/mL
P. aeruginosa [7]; P. aeruginosa 7745, Amikacin alone (checkerboard with BisEDT)
  MIC: 4 µg/mL
P. aeruginosa [7]; P. aeruginosa 8798, Amikacin alone (checkerboard with BisEDT)
  MIC: 128 µg/mL
P. aeruginosa [7]; P. aeruginosa 9108, Amikacin alone (checkerboard with BisEDT)
  MIC: 4 µg/mL

## CCC[C@@H]1C[C@@H](C(=O)N[C@@H]([C@H]2O[C@H](SC)[C@H](O)[C@@H](O)[C@H]2O)[C@H](C)Cl)N(C)C1 [clindamycin]
S. pneumoniae [1]; [10]
  MIC: 0.06 µg/mL (≈ 0.141 µM)
S. pneumoniae [1]; [11]
  MIC: > 8 µg/mL
S. pneumoniae [1]; [12]
  MIC: > 8 µg/mL
S. pneumoniae [1]; [13]
  MIC: > 8 µg/mL
S. pneumoniae [1]; [14]
  MIC: > 8 µg/mL
S. pneumoniae [1]; [15]
  MIC: > 8 µg/mL
S. pneumoniae [1]; [16]
  MIC: > 8 µg/mL
[8]
  MIC: ≥ 4 µg/mL
S. pyogenes; S. pyogenes MMX 3068, Ery^R
  MIC: 0.06 µg/mL (≈ 0.141 µM)
S. pyogenes; [17]
  MIC: 1 µg/mL (≈ 2.35 µM)
S. pyogenes; S. pyogenes MMX 3919, ERY^R
  MIC: 0.12 µg/mL (≈ 0.282 µM)
S. pyogenes; [18]
  MIC: > 8 µg/mL
S. pyogenes; [19]
  MIC: > 8 µg/mL
E. faecalis; E. faecalis MMX 8960
  MIC: > 32 µg/mL
E. faecalis; E. faecalis MMX 8961
  MIC: > 32 µg/mL
E. faecalis; E. faecalis MMX 8962
  MIC: > 32 µg/mL
S. agalactiae; [20]
  MIC: > 8 µg/mL
S. agalactiae; [21]
  MIC: > 8 µg/mL
S. agalactiae; [22]
  MIC: > 8 µg/mL
S. agalactiae; [23]
  MIC: > 8 µg/mL
S. agalactiae; [24]
  MIC: > 8 µg/mL
Clostridium difficile
  MIC, CLSI QC range: (2-8) pg/mL
[9]; ATCC29213|MRSA|MSSA, S. aureus MMX 101 (ATCC 29213), QC, MSSA
  MIC: 0.12 µg/mL (≈ 0.282 µM)
[9]; MRSA, S. aureus MMX 5373, MRSA Lev^R Cip^R CC^R Ery^R Ox^R
  MIC: > 32 µg/mL
[9]; MRSA, S. aureus MMX 6311, MRSA Lev^R Cip^R CC^R Ery^R Ox^R
  MIC: > 32 µg/mL
[9]; MRSA, S. aureus MMX 9203, MRSA Lev^R Cip^R Ery^R Ox^R
  MIC: 0.12 µg/mL (≈ 0.282 µM)
[9]; MRSA, S. aureus MMX 9204, MRSA Lev^R Cip^R Ery^R Ox^R
  MIC: 0.12 µg/mL (≈ 0.282 µM)
[9]; MRSA, S. aureus MMX 9205, MRSA Lev^R Cip^R CC^R Ery^R Ox^R
  MIC: > 32 µg/mL
Bacteroides fragilis
  MIC, CLSI QC range: (0.5-2)^1 ^ pg/mL

— US11464749B2, “Bismuth-thiol compositions and methods of use” (Microbion Corporation, priority 2018, dated 2022)
